From patent publication US20060199856A1, “Novel compounds as anti-inflammatory, immunomodulatory and anti-proliferatory agents” (4 SC AG, priority 2001, published 2006)
Like-named read-outs stand apart in the source and are kept apart here.

What was measured:
Format in all cases: biochemical
[1] = molecular target: T1, recombinant human DHODH (Homo sapiens, UniProt Q02127); assay: Inhibition assay of DHODH activity (human enzyme)
T1 construct: provided by Prof; M. Löffler, Marburg, Germany (gift, not purchased)
Method: (§1) The standard assay mixture contained 50 μM decyclo ubichinone, 100 μM dihydroorotate, 60 μM 2,6-dichloroindophenol, as well as 20 mU DHODH. The volume activity of the recombinant enzyme used was 30 U/ml. Measurements were conducted in 50 mM TrisHCl (150 mM KCl, 0,1% Triton X-100, pH. 8,0) at 30° C. in a final volume of 1 ml. The components were mixed, and the reaction was started by adding dihydroorotate. The course of reaction was followed by spectrophotometrically measuring the decrease in absorption at 600 nm for 2 min.
(§2) Inhibitory studies were conducted in a standard assay with additional variable amounts of inhibitor.
(§3) These investigations were carried out with recombinant human as well as with recombinant murine DHODH provided by Prof. M. Löffler, Marburg, Germany [M. Löffler, Chem. Biol. Interact.

[2] = molecular target: T2, recombinant murine DHODH (Mus musculus, UniProt O35435); assay: Inhibition assay of DHODH activity (murine enzyme); settings: numeric values or words
T2 construct: provided by Prof; M. Löffler, Marburg, Germany (gift, not purchased)
Method: as §1, §2, §3

[3] = molecular target: DHODH (Rattus norvegicus, UniProt Q63707); assay: Inhibition assay of DHODH activity (rat enzyme, head printed 'rate')
Method: as §1, §2

[4] = recombinant human DHODH, numeric values, read-out: human IC50-Value
[5] = recombinant human DHODH, class symbols (in nM), read-out: human IC50-Value
[6] = class symbols (in nM), read-out: rate IC50-Value

T2 sequence (O35435 whole entry): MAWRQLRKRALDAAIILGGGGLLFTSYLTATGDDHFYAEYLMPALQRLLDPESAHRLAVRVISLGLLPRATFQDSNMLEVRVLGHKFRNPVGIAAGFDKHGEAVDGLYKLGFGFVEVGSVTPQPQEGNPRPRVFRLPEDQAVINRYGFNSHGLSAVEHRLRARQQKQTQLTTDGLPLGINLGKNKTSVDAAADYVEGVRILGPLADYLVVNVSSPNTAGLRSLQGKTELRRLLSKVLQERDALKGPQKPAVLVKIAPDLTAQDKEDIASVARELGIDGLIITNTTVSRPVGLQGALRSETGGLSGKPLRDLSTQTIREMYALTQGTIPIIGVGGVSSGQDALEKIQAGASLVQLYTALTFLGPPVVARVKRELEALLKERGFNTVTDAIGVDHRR
T1 sequence (Q02127 whole entry): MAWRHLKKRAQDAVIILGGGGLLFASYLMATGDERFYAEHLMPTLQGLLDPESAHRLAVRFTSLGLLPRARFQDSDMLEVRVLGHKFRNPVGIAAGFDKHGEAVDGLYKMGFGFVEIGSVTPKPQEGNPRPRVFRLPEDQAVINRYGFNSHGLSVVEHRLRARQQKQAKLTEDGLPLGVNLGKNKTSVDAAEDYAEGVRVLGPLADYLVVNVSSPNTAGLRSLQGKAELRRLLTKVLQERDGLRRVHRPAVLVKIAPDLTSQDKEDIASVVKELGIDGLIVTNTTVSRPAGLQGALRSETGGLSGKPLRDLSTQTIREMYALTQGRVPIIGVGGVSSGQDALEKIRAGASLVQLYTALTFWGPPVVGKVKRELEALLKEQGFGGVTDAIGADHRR
DHODH, sequence (Q63707 whole entry): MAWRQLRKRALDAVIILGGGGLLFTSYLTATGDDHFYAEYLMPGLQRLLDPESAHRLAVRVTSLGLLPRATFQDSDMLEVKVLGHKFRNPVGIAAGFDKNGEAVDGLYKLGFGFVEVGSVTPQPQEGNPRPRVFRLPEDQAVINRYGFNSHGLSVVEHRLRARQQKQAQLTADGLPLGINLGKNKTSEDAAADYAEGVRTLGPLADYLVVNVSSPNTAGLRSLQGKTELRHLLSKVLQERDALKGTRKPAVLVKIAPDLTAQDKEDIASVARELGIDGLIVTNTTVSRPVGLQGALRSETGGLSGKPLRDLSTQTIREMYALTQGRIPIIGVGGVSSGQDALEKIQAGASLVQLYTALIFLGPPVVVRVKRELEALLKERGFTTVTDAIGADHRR

## O=C(O)C1=C(C(=O)Nc2ccc(OCc3ccccc3)cc2)CCC1 [Compound 01, 2-(4-Benzyloxy-phenylcarbamoyl)-cyclopent-l-enecarboxylic acid]
[1]; [4]
  IC50: 350 nM
[2]
  IC50: 8.2 µM

## O=C(O)C1=C(C(=O)Nc2cc(C(F)(F)F)cc(C(F)(F)F)c2)CCC1 [Compound 03]
[1]; [4]
  IC50: 1000 nM

## COc1ccc(Nc2ccc(NC(=O)C3=C(C(=O)O)CCC3)cc2)cc1 [Compound 04]
[1]; [4]
  IC50: 1000 nM
[2]
  murine IC50-Value: weakly active

## O=C(O)C1=C(C(=O)Nc2ccc3c(c2)S(=O)(=O)c2cc(NC(=O)C4=C(C(=O)O)CCC4)ccc2C3)CCC1 [Compound 05]
[1]; [4]
  IC50: 1100 nM
[2]
  murine IC50-Value: weakley active

## O=C(O)C1=C(C(=O)Nc2c(F)c(F)cc(F)c2F)CCC1 [Compound 06]
[1]; [4]
  IC50: 1300 nM

## O=C(O)C1=C(C(=O)Nc2c(F)c(F)c(C(F)(F)F)c(F)c2F)CCC1 [Compound 07]
[1]; [4]
  IC50: 1600 nM

## O=C(O)C1=C(C(=O)Nc2ccc(C(F)(F)F)cc2)CCC1 [Compound 08]
[1]; [4]
  IC50: 1600 nM
[2]
  IC50: 0.93 µM

## O=C(O)C1=C(C(=O)Nc2cccc(C(F)(F)F)c2)CCC1 [Compound 09]
[1]; [4]
  IC50: 6800 nM
[2]
  IC50: 55 µM

## O=C(O)C1=C(C(=O)Nc2ccc(F)c(F)c2F)CCC1 [Compound 10]
[1]; [4]
  IC50: 6800 nM

## Nc1ccc(Oc2ccc(NC(=O)C3=C(C(=O)O)CCCC3)cc2)cc1 [Compound 11]
[1]; [4]
  IC50: 7000 nM

## O=C(O)C1=C(C(=O)Nc2ccc(-c3ccccc3F)cc2)CCC1 [Compound 13]
[1]; [5]
  IC50: < 800 nM
[3]; [6]
  IC50: > 1500 nM

## O=C(O)C1=C(C(=O)Nc2ccc(-c3ccccc3Cl)cc2)CCC1 [Compound 14]
[1]; [5]
  IC50: < 800 nM
[3]; [6]
  IC50: > 1500 nM

## COc1ccccc1-c1ccc(NC(=O)C2=C(C(=O)O)CCC2)cc1 [Compound 15]
[1]; [5]
  IC50: < 800 nM

## O=C(O)C1=C(C(=O)Nc2ccc(OCc3c(F)cccc3F)cc2)CCC1 [Compound 16]
[1]; [5]
  IC50: < 800 nM

## CCOc1ccccc1-c1ccc(NC(=O)C2=C(C(=O)O)CCC2)c(F)c1 [Compound 17]
[1]; [5]
  IC50: < 800 nM

## N#Cc1cccc(-c2ccc(NC(=O)C3=C(C(=O)O)CCC3)cc2Cl)c1 [Compound 18]
[1]; [5]
  IC50: < 800 nM

## COc1ccc(-c2ccc(NC(=O)C3=C(C(=O)O)CCC3)cc2Cl)cc1 [Compound 19]
[1]; [5]
  IC50: < 800 nM
[3]; [6]
  IC50: < 800 nM

## CS(=O)(=O)c1ccc(-c2ccc(NC(=O)C3=C(C(=O)O)CCC3)cc2Cl)cc1 [Compound 20]
[1]; [5]
  IC50: 800 to 1500 nM

## N#Cc1ccc(-c2ccc(NC(=O)C3=C(C(=O)O)CCC3)cc2Cl)cc1 [Compound 21]
[1]; [5]
  IC50: 800 to 1500 nM

## COc1ccc(-c2ccc(NC(=O)C3=C(C(=O)O)CCC3)cc2Cl)cn1 [Compound 22]
[1]; [5]
  IC50: < 800 nM

## COc1ccc(-c2ccc(NC(=O)C3=C(C(=O)O)CCC3)cc2C)cc1 [Compound 23]
[1]; [5]
  IC50: < 800 nM

## O=C(O)C1=C(C(=O)Nc2cc(Br)c(OCc3cc(F)ccc3F)c(Br)c2)CCC1 [Compound 24]
[1]; [5]
  IC50: < 800 nM
[3]; [6]
  IC50: > 1500 nM

## COc1cccc(-c2ccc(NC(=O)C3=C(C(=O)O)CCC3)c(F)c2)c1 [Compound 26]
[3]
  IC50: > 1500 nM

## O=C(O)C1=C(C(=O)Nc2ccc(-c3cccc(F)c3)cc2F)CCC1 [Compound 27]
[1]; [5]
  IC50: < 800 nM

## O=C(O)C1=C(C(=O)Nc2ccc(-c3cccnc3)c(Cl)c2)CCC1 [Compound 28]
[1]; [5]
  IC50: 800 to 1500 nM

## O=C(O)C1=C(C(=O)Nc2cc(Br)c(OCc3ccccc3)c(Br)c2)CSC1 [Compound 29]
[1]
  IC50: < 800 nM
[3]
  IC50: 800 to 1500 nM

## Cc1cc(-c2cc(F)c(NC(=O)C3=C(C(=O)O)CCC3)c(F)c2)ccc1F [Compound 30]
[1]; [5]
  IC50: < 800 nM

## COc1ccccc1-c1ccc(NC(=O)C2=C(C(=O)O)CCC2)c([N+](=O)[O-])c1 [Compound 32]
[1]; [5]
  IC50: < 800 nM

## COc1cc(-c2ccccc2)ccc1NC(=O)C1=C(C(=O)O)CCC1 [Compound 33]
[1]; [5]
  IC50: < 800 nM

## COc1cc(-c2ccccc2Cl)ccc1NC(=O)C1=C(C(=O)O)CCC1 [Compound 34]
[1]; [5]
  IC50: < 800 nM

## COc1cc(-c2cccc(OC(F)(F)F)c2)ccc1NC(=O)C1=C(C(=O)O)CCC1 [Compound 35]
[1]; [5]
  IC50: < 800 nM

## COc1cc(-c2ccccc2F)ccc1NC(=O)C1=C(C(=O)O)CCC1 [Compound 36]
[1]; [5]
  IC50: < 800 nM

## COc1ccc(-c2ccc(NC(=O)C3=C(C(=O)O)CCC3)c(OC)c2)c(OC)c1 [Compound 37]
[1]; [5]
  IC50: < 800 nM

## CCOc1cccc(-c2ccc(NC(=O)C3=C(C(=O)O)CCC3)c(OC)c2)c1 [Compound 38]
[1]; [5]
  IC50: < 800 nM
